Drawing on patent US10058550B2, “Methods of treating heart failure” (priority 2015, dated 2018), this text covers EC50 for eleven compounds.

human APJ receptor, sequence (P35414 whole entry): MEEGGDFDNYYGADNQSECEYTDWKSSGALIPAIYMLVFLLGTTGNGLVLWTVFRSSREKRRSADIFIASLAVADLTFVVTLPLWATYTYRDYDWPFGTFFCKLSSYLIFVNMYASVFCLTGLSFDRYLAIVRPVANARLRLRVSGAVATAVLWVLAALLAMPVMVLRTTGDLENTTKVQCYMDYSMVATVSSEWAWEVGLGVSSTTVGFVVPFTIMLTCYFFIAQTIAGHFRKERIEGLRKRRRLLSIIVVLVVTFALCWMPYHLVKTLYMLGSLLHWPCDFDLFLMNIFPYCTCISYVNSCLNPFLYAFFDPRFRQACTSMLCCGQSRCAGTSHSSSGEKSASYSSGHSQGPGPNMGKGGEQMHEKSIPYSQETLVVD

The test deals with human APJ receptor (Homo sapiens (Human), UniProt P35414). Kind of test: biochemical. It counts as biochemical. To be noted: read-out: Activity hAPJ SPA EC50 IP. As for the experimental part:
The human APJ receptor was cloned by polymerase chain reaction and the gene encoding the receptor was subcloned in pFLAG-CMV™-3 expression vector (Sigma, Saint Louis, Mo. USA) in-house at Amgen. A GTPγS binding assay was performed on membranes prepared from CHO cells stably expressing human APJ receptor. The optimum experimental conditions for the concentrations of GDP, MgCl2, and NaCl in the assay buffer were initially determined. The assay was performed in assay buffer [20 mM HEPES, pH 7.5, 5 mM MgCl2, and 0.1% (w/v) BSA with 200 mM NaCl, 3 μM GDP] and membranes expressing human APJ receptor/well along with WGA PS beads. The reaction was initiated by addition of 0.2 nM [^35S]GTPγS (Perkin Elmer Life and Analytical Sciences, Waltham USA) in the absence or presence of various ligands and incubated at RT for 90 min. […] All the results presented are means of several independent experiments and analyzed by non-linear regression methods using commercially available program Prism (GraphPad, San Diego, Calif.) to obtain EC50 detailed in Table 58.
With `COc1cccc(-c2nnc(NS(=O)(=O)[C@@H](C)[C@H](OC)c3ncc(C)cn3)n2-c2c(OC)ccnc2OC)n1` (atropisomer, axis not shown) [Example 636.0, (1R,2S, P)-N-(4-(2,4-dimethoxypyridin-3-yl)-5-(6-methoxypyridin-2-yl)-4H-1,2,4-triazol-3-yl)-1-methoxy-1-(5-methylpyrimidin-2-yl)propane-2-sulfonamide and (1R,2S, M)-N-(4-(2,4-dimethoxypyridin-3-yl)-5-(6-methoxypyridin-2-yl)-4H-1,2,4-triazol-3-yl)-1-methoxy-1-(5-methylpyrimidin-2-yl)propane-2-sulfonamide], the concentration giving a half-maximal response (EC50) is 0.4 nM.
As for `COc1cccc(F)c1-n1c(NS(=O)(=O)[C@@H](C)[C@H](C)c2ncc(C)cn2)nnc1-c1cncc(C)c1` (atropisomer, axis not shown) [Example 688.0, (2S,3R, P)-N-(4-(2-fluoro-6-methoxyphenyl)-5-(5-methyl-3-pyridinyl)-4H-1,2,4-triazol-3-yl)-3-(5-methyl-2-pyrimidinyl)-2-butanesulfonamide 2,2,2-trifluoroacetate and (2S,3R, M)-N-(4-(2-fluoro-6-methoxyphenyl)-5-(5-methyl-3-pyridinyl)-4H-1,2,4-triazol-3-yl)-3-(5-methyl-2-pyrimidinyl)-2-butanesulfonamide 2,2,2-trifluoroacetate], the figure is 0.66 nM; as for `COc1cccc(-c2nnc(NS(=O)(=O)[C@@H](C)[C@H](OC)c3ncc(C)cn3)n2-c2cccnc2OC)n1` (atropisomer, axis not shown) [Example 741.0, (1R,2S)-1-methoxy-N-(5-(6-methoxypyridin-2-yl)-4-(2-methoxypyridin-3-yl)-4H-1,2,4-triazol-3-yl)-1-(5-methylpyrimidin-2-yl)propane-2-sulfonamide], 3.1 nM.
`COc1ccccc1-n1c(NS(=O)(=O)[C@@H](C)[C@H](C)c2ncc(C)cn2)nnc1-c1cncc(C)c1` (atropisomer, axis not shown) [Example 797.0, (2S,3R, P)-N-(4-(2-methoxyphenyl)-5-(5-methyl-3-pyridinyl)-4H-1,2,4-triazol-3-yl)-3-(5-methyl-2-pyrimidinyl)-2-butanesulfonamide and (2S,3R, M)-N-(4-(2-methoxyphenyl)-5-(5-methyl-3-pyridinyl)-4H-1,2,4-triazol-3-yl)-3-(5-methyl-2-pyrimidinyl)-2-butanesulfonamide]: the concentration for a half-maximal effect (EC50) stood at 2.4 nM.
As for `COc1cccc(-c2nnc(NS(=O)(=O)[C@@H](C)[C@H](OC)c3ncc(C)cn3)n2-c2cc(C)ccc2OC)n1` (atropisomer, axis not shown; (P)) [Example 40.0, (1R,2S,P)-1-methoxy-N-(4-(2-methoxy-5-methylphenyl)-5-(6-methoxypyridin-2-yl)-4H-1,2,4-triazol-3-yl)-1-(5-methylpyrimidin-2-yl)propane-2-sulfonamide and (1R,2S,M)-1-methoxy-N-(4-(2-methoxy-5-methylphenyl)-5-(6-methoxypyridin-2-yl)-4H-1,2,4-triazol-3-yl)-1-(5-methylpyrimidin-2-yl)propane-2-sulfonamide], the figure is 4.7 nM.
As for `COc1cccc(-c2nnc(NS(=O)(=O)[C@@H](C)[C@H](OC)c3ncc(C)cn3)n2-c2ccccc2OC)n1` (atropisomer, axis not shown; (P)) [Example 52.0, (1R,2S,P)-1-methoxy-N-(4-(2-methoxyphenyl)-5-(6-methoxy-2-pyridinyl)-4H-1,2,4-triazol-3-yl)-1-(5-methyl-2-pyrimidinyl)-2-propanesulfonamide and (1R,2S,M)-1-methoxy-N-(4-(2-methoxyphenyl)-5-(6-methoxy-2-pyridinyl)-4H-1,2,4-triazol-3-yl)-1-(5-methyl-2-pyrimidinyl)-2-propanesulfonamide], the figure is 4.2 nM; as for `COc1cccc(-c2nnc(NS(=O)(=O)[C@@H](C)[C@H](OC)c3ncc(C)cn3)n2-c2cccc(Cl)c2C)n1` (atropisomer, axis not shown; (P)) [Example 55.0, (1R,2S,P)-N-(4-(3-chloro-2-methylphenyl)-5-(6-methoxy-2-pyridinyl)-4H-1,2,4-triazol-3-yl)-1-methoxy-1-(5-methyl-2-pyrimidinyl)-2-propanesulfonamide and (1R,2S,M)-N-(4-(3-chloro-2-methylphenyl)-5-(6-methoxy-2-pyridinyl)-4H-1,2,4-triazol-3-yl)-1-methoxy-1-(5-methyl-2-pyrimidinyl)-2-propanesulfonamide], 17 nM; as for `COc1cccc(-c2nnc(NS(=O)(=O)[C@@H](C)[C@H](OC)c3ncc(C)cn3)n2-c2ccccc2C)n1` (atropisomer, axis not shown; (P)) [Example 61.0, (1R,2S,P)-1-methoxy-N-(5-(6-methoxy-2-pyridinyl)-4-(2-methylphenyl)-4H-1,2,4-triazol-3-yl)-1-(5-methyl-2-pyrimidinyl)-2-propanesulfonamide and (1R,2S,M)-1-methoxy-N-(5-(6-methoxy-2-pyridinyl)-4-(2-methylphenyl)-4H-1,2,4-triazol-3-yl)-1-(5-methyl-2-pyrimidinyl)-2-propanesulfonamide], 6.5 nM.
In the case of `COc1cccc(-c2nnc(NS(=O)(=O)[C@@H](C)[C@H](OC)c3ncc(C)cn3)n2-c2ccc(F)cc2Cl)n1` (atropisomer, axis not shown; (P)) [Example 67.0, (1R,2S,P)-N-(4-(2-chloro-4-fluorophenyl)-5-(6-methoxy-2-pyridinyl)-4H-1,2,4-triazol-3-yl)-1-methoxy-1-(5-methyl-2-pyrimidinyl)-2-propanesulfonamide and (1R,2S,M)-N-(4-(2-chloro-4-fluorophenyl)-5-(6-methoxy-2-pyridinyl)-4H-1,2,4-triazol-3-yl)-1-methoxy-1-(5-methyl-2-pyrimidinyl)-2-propanesulfonamide], the concentration giving a half-maximal response (EC50) stood at 15 nM.
Turning to `COc1cccc(-c2nnc(NS(=O)(=O)[C@@H](C)[C@H](OC)c3ncc(C)cn3)n2-c2ccccc2Cl)n1` (atropisomer, axis not shown; (P)) [Example 69.0, (1R,2S,P)-N-(4-(2-chlorophenyl)-5-(6-methoxy-2-pyridinyl)-4H-1,2,4-triazol-3-yl)-1-methoxy-1-(5-methyl-2-pyrimidinyl)-2-propanesulfonamide and (1R,2S,M)-N-(4-(2-chlorophenyl)-5-(6-methoxy-2-pyridinyl)-4H-1,2,4-triazol-3-yl)-1-methoxy-1-(5-methyl-2-pyrimidinyl)-2-propanesulfonamide], the half-maximal effective concentration (EC50) was determined as 2.1 nM.
On to `COc1cccc(-c2nnc(NS(=O)(=O)[C@@H](C)[C@H](OC)c3ncc(C)cn3)n2-c2cccc(C)c2C)n1` (atropisomer, axis not shown; (P)) [Example 70.0, (1R,2S,P)-N-(4-(2,3-dimethylphenyl)-5-(6-methoxy-2-pyridinyl)-4H-1,2,4-triazol-3-yl)-1-methoxy-1-(5-methyl-2-pyrimidinyl)-2-propanesulfonamide and (1R,2S,M)-N-(4-(2,3-dimethylphenyl)-5-(6-methoxy-2-pyridinyl)-4H-1,2,4-triazol-3-yl)-1-methoxy-1-(5-methyl-2-pyrimidinyl)-2-propanesulfonamide], for which the 50% effective concentration (EC50) was found to be 2.6 nM.

As usually defined, the EC50 is the concentration needed to bring the measured effect to its halfway point.
